Tests used:
Assay in all cases: KINOMEscan competition binding
Settings in all cases: compound 10.0 µM
[1] = tested on: ABL1 (human), P00519 [M351T]
FYN (human) = FYN (human) (UniProt P06241)
PAK4 (human) = PAK4 (human) (UniProt O96013)
PIK3CD (human) = PIK3CD (human) (UniProt O00329)
CDK17 (human) = CDK17 (human) (UniProt Q00537)
ABL2 (human) = ABL2 (human) (UniProt P42684)
PRKACA (human) = PRKACA (human) (UniProt P17612)
MARK1 (human) = MARK1 (human) (UniProt Q9P0L2)
MYO3B (human) = MYO3B (human) (UniProt Q8WXR4)
PRKD2 (human) = PRKD2 (human) (UniProt Q9BZL6)
MAP2K3 (human) = MAP2K3 (human) (UniProt P46734)
EIF2AK2 (human) = EIF2AK2 (human) (UniProt P19525)
BMPR2 (human) = BMPR2 (human) (UniProt Q13873)
RPS6KA1 KD1 (human) = RPS6KA1 KD1 (human) (UniProt Q15418)
MLTK (human) = MLTK (human) (UniProt Q9NYL2)
PDGFRB (human) = PDGFRB (human) (UniProt P09619)
CDK8 (human) = CDK8 (human) (UniProt P49336)
SRC (human) = SRC (human) (UniProt P12931)
CSNK1D (human) = CSNK1D (human) (UniProt P48730)
MAP2K6 (human) = MAP2K6 (human) (UniProt P52564)
EPHB2 (human) = EPHB2 (human) (UniProt P29323)
STK11 (human) = STK11 (human) (UniProt Q15831)
MAP3K3 (human) = MAP3K3 (human) (UniProt Q99759)
MAPKAPK5 (human) = MAPKAPK5 (human) (UniProt Q8IW41)
CDK18 (human) = CDK18 (human) (UniProt Q07002)
BMPR1A (human) = BMPR1A (human) (UniProt P36894)
[2] = tested on: KIT (human), P10721 [D816V]
RET (human) = RET (human) (UniProt P07949)
IRAK3 (human) = IRAK3 (human) (UniProt Q9Y616)
CAMK4 (human) = CAMK4 (human) (UniProt Q16566)
PIM1 (human) = PIM1 (human) (UniProt P11309)
CDK11B (human) = CDK11B (human) (UniProt P21127)
STK33 (human) = STK33 (human) (UniProt Q9BYT3)
CAMKK1 (human) = CAMKK1 (human) (UniProt Q8N5S9)
CDC42BPB (human) = CDC42BPB (human) (UniProt Q9Y5S2)
MYLK (human) = MYLK (human) (UniProt Q15746)
[3] = target: TYK2 JH2 pseudokinase (human) (UniProt P29597)
NEK9 (human) = NEK9 (human) (UniProt Q8TD19)
CDKL2 (human) = CDKL2 (human) (UniProt Q92772)
TEC (human) = TEC (human) (UniProt P42680)

CDKL2 (human), sequence (Q92772 whole entry, looked up): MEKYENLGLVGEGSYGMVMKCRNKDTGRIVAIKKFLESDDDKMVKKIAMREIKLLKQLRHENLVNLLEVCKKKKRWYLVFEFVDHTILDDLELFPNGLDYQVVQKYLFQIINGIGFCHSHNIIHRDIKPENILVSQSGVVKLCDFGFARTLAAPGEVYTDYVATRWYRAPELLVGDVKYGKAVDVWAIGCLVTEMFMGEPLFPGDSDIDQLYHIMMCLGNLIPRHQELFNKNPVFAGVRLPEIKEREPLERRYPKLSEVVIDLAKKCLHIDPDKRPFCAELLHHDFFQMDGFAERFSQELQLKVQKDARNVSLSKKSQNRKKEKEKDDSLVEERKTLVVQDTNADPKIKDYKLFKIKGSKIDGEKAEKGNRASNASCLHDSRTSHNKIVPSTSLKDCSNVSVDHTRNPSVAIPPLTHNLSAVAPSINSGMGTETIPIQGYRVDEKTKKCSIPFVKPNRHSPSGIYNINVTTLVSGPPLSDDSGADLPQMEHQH
MYLK (human), sequence (Q15746 whole entry, looked up): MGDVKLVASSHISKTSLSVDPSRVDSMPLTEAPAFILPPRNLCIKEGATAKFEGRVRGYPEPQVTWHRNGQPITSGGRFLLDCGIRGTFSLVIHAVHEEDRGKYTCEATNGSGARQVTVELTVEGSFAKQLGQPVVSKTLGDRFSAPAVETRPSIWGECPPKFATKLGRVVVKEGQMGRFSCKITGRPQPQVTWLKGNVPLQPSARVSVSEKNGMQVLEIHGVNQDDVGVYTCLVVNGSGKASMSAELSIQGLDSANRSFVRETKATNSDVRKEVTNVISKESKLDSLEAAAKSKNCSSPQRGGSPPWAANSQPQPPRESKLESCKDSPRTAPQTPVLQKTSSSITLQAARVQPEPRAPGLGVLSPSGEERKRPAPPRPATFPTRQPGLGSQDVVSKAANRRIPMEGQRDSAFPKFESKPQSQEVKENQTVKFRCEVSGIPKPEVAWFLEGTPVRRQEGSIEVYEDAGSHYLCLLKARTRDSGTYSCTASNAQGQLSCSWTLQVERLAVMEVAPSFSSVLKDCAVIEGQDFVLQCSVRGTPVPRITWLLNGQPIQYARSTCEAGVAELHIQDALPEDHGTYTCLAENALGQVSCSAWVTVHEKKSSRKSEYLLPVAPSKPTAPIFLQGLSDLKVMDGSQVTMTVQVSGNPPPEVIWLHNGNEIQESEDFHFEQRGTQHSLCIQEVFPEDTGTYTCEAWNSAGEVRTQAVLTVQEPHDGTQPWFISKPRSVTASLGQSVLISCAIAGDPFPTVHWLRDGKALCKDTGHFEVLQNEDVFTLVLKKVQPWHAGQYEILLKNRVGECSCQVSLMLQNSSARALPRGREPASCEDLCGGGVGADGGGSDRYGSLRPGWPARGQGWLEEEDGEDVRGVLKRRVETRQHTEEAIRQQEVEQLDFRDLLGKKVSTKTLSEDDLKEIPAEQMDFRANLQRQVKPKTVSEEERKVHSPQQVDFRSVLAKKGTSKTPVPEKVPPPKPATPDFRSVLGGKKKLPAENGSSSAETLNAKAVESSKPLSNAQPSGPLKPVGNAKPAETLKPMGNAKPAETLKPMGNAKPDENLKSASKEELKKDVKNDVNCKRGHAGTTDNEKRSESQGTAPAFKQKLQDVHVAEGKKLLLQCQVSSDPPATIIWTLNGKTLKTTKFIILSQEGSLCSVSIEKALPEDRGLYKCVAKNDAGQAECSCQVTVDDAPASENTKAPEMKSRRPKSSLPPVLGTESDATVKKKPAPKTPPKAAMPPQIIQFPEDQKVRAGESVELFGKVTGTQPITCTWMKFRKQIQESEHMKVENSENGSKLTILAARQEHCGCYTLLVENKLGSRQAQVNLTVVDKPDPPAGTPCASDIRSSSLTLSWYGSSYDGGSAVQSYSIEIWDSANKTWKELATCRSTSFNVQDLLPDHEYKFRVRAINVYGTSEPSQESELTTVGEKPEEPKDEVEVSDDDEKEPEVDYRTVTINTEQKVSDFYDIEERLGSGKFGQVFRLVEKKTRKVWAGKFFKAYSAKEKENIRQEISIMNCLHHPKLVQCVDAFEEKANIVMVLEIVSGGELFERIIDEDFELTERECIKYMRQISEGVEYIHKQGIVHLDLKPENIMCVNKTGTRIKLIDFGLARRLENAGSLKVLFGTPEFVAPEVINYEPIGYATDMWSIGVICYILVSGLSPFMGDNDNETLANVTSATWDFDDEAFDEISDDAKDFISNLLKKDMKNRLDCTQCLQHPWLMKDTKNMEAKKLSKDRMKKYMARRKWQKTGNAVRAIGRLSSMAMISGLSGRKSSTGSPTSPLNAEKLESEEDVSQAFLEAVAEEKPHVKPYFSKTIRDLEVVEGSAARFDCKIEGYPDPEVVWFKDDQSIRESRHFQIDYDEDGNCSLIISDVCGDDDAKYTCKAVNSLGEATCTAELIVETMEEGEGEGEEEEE
MAPKAPK5 (human), sequence (Q8IW41 whole entry, looked up): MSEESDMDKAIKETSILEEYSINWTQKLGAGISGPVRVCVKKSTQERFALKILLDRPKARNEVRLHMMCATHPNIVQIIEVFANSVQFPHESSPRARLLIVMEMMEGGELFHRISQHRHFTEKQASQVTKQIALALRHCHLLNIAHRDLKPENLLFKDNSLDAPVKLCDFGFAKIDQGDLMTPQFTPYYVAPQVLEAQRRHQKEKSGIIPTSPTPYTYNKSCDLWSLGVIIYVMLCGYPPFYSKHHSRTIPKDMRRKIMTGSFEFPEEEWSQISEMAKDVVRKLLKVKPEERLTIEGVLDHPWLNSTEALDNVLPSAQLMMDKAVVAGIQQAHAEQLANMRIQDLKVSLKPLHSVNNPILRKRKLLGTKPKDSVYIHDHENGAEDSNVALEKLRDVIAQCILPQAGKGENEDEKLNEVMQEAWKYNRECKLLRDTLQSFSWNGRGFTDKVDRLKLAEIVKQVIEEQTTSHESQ
RET (human), sequence (P07949 whole entry, looked up): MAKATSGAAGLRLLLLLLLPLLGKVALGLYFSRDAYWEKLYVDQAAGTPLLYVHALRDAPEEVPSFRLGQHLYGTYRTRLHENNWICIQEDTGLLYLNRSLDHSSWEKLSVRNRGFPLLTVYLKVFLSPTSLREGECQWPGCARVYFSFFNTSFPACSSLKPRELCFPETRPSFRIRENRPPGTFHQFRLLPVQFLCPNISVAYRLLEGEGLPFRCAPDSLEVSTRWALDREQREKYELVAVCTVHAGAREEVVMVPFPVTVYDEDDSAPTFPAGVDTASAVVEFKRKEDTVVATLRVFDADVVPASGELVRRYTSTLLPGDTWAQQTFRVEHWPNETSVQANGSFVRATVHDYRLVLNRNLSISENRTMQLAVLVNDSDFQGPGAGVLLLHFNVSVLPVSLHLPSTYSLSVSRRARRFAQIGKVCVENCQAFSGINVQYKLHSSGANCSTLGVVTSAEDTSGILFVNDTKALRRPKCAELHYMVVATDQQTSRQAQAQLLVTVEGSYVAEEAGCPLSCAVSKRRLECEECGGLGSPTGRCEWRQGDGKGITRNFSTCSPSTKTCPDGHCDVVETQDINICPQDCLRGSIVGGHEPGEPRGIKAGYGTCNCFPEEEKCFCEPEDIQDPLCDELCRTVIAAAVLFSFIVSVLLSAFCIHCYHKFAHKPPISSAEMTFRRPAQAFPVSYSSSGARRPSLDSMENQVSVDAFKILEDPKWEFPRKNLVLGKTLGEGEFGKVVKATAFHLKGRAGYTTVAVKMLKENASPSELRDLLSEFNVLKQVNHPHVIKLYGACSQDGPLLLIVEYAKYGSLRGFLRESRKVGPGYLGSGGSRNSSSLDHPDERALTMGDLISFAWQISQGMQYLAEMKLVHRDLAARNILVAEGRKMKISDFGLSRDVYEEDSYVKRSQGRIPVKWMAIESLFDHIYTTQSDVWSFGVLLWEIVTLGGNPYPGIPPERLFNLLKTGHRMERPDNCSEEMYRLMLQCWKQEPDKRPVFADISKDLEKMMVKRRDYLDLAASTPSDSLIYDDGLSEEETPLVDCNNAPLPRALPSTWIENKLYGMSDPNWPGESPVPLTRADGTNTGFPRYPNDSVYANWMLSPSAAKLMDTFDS
IRAK3 (human), sequence (Q9Y616 whole entry, looked up): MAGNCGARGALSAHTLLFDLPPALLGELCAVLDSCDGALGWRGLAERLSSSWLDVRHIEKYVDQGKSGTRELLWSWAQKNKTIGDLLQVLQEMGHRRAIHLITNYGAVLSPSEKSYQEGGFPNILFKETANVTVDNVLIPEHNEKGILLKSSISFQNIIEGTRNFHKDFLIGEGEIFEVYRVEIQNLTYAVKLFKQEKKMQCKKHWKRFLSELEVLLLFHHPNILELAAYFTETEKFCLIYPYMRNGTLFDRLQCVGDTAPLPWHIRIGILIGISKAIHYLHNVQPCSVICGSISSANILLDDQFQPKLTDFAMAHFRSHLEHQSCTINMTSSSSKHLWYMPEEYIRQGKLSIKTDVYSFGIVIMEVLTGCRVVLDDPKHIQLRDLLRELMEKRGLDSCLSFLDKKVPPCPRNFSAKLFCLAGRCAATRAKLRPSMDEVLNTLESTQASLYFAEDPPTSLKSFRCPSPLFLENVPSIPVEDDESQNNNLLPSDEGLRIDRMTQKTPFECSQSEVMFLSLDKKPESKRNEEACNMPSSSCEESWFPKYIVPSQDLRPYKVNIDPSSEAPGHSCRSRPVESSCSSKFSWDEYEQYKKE
MAP2K6 (human), sequence (P52564 whole entry, looked up): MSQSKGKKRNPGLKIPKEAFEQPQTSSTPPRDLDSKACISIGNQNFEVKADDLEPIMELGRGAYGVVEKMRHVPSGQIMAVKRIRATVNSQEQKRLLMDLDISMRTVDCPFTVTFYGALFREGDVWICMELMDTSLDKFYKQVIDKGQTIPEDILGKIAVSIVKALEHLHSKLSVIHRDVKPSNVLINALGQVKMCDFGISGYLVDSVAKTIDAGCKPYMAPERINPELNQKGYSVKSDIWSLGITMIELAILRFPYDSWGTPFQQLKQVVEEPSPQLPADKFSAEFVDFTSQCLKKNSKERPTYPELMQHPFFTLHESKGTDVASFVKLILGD

C=CC(=O)Nc1cc(NC(=O)c2ccc(C)c(NC(=O)c3ccno3)c2)cc(C(F)(F)F)c1
kinase still bound, per cent of control [1]: 51%
kinase still bound, per cent of control (FYN (human)): 73%
kinase still bound, per cent of control (PAK4 (human)): 93%
kinase still bound, per cent of control (PIK3CD (human)): 100%
kinase still bound, per cent of control (CDK17 (human)): 92%
kinase still bound, per cent of control (ABL2 (human)): 32%
kinase still bound, per cent of control (PRKACA (human)): 100%
kinase still bound, per cent of control (MARK1 (human)): 100%
kinase still bound, per cent of control (MYO3B (human)): 100%
kinase still bound, per cent of control (PRKD2 (human)): 100%
kinase still bound, per cent of control (MAP2K3 (human)): 100%
kinase still bound, per cent of control (EIF2AK2 (human)): 100%
kinase still bound, per cent of control (BMPR2 (human)): 100%
kinase still bound, per cent of control (RPS6KA1 KD1 (human)): 99%
kinase still bound, per cent of control (MLTK (human)): 6%
kinase still bound, per cent of control (PDGFRB (human)): 1.2%
kinase still bound, per cent of control (CDK8 (human)): 100%
kinase still bound, per cent of control (SRC (human)): 49%
kinase still bound, per cent of control (CSNK1D (human)): 100%
kinase still bound, per cent of control (MAP2K6 (human)): 100%
kinase still bound, per cent of control (EPHB2 (human)): 77%
kinase still bound, per cent of control (STK11 (human)): 100%
kinase still bound, per cent of control (MAP3K3 (human)): 96%
kinase still bound, per cent of control (MAPKAPK5 (human)): 83%
kinase still bound, per cent of control (CDK18 (human)): 91%
kinase still bound, per cent of control (BMPR1A (human)): 100%
kinase still bound, per cent of control [2]: 78%
kinase still bound, per cent of control (RET (human)): 96%
kinase still bound, per cent of control (IRAK3 (human)): 100%
kinase still bound, per cent of control (CAMK4 (human)): 100%
kinase still bound, per cent of control (PIM1 (human)): 100%
kinase still bound, per cent of control (CDK11B (human)): 86%
kinase still bound, per cent of control (STK33 (human)): 100%
kinase still bound, per cent of control (CAMKK1 (human)): 96%
kinase still bound, per cent of control (CDC42BPB (human)): 91%
kinase still bound, per cent of control (MYLK (human)): 100%
kinase still bound, per cent of control [3]: 100%
kinase still bound, per cent of control (NEK9 (human)): 100%
kinase still bound, per cent of control (CDKL2 (human)): 100%
kinase still bound, per cent of control (TEC (human)): 100%

C=CC(=O)Nc1cccc(Nc2nc(N[C@H]3CC[C@H](N(C)C)CC3)nc3c2ncn3C(C)C)c1
kinase still bound, per cent of control [1]: 71%
kinase still bound, per cent of control (FYN (human)): 23%
kinase still bound, per cent of control (PAK4 (human)): 17%
kinase still bound, per cent of control (PIK3CD (human)): 92%
kinase still bound, per cent of control (CDK17 (human)): 100%
kinase still bound, per cent of control (ABL2 (human)): 94%
kinase still bound, per cent of control (PRKACA (human)): 100%
kinase still bound, per cent of control (MARK1 (human)): 94%
kinase still bound, per cent of control (MYO3B (human)): 100%
kinase still bound, per cent of control (PRKD2 (human)): 100%
kinase still bound, per cent of control (MAP2K3 (human)): 77%
kinase still bound, per cent of control (EIF2AK2 (human)): 78%
kinase still bound, per cent of control (BMPR2 (human)): 79%
kinase still bound, per cent of control (RPS6KA1 KD1 (human)): 9.4%
kinase still bound, per cent of control (MLTK (human)): 100%
kinase still bound, per cent of control (PDGFRB (human)): 8.4%
kinase still bound, per cent of control (CDK8 (human)): 100%
kinase still bound, per cent of control (SRC (human)): 4%
kinase still bound, per cent of control (CSNK1D (human)): 0.75%
kinase still bound, per cent of control (MAP2K6 (human)): 100%
kinase still bound, per cent of control (EPHB2 (human)): 87%
kinase still bound, per cent of control (STK11 (human)): 66%
kinase still bound, per cent of control (MAP3K3 (human)): 2.7%
kinase still bound, per cent of control (MAPKAPK5 (human)): 87%
kinase still bound, per cent of control (CDK18 (human)): 77%
kinase still bound, per cent of control (BMPR1A (human)): 100%
kinase still bound, per cent of control [2]: 10%
kinase still bound, per cent of control (RET (human)): 73%
kinase still bound, per cent of control (IRAK3 (human)): 38%
kinase still bound, per cent of control (CAMK4 (human)): 100%
kinase still bound, per cent of control (PIM1 (human)): 92%
kinase still bound, per cent of control (CDK11B (human)): 100%
kinase still bound, per cent of control (STK33 (human)): 15%
kinase still bound, per cent of control (CAMKK1 (human)): 40%
kinase still bound, per cent of control (CDC42BPB (human)): 76%
kinase still bound, per cent of control (MYLK (human)): 55%
kinase still bound, per cent of control [3]: 100%
kinase still bound, per cent of control (NEK9 (human)): 100%
kinase still bound, per cent of control (CDKL2 (human)): 100%
kinase still bound, per cent of control (TEC (human)): 100%

Reference: the kinase profiling compilation of Christmann-Franck et al. (2016)
